Laboratory results: ChEMBL document CHEMBL4311972, “Discovery of a benzothiophene-flavonol halting miltefosine and antimonial drug resistance in Leishmania parasites through the application of medicinal chemistry, screening and genomics” (Eur J Med Chem, 2019)

What was measured:
CYP2C9 = CYP2C9 (Homo sapiens, UniProt P11712); experiment: Inhibition of human microsomal CYP2C9 expressed in baculovirus infected insect cells at 10 uM using luciferin-H as substrate preincubated with enzyme/substrate mixture for 30 mins followed by further incubation with NADPH for 30 mins by CYP450 luciferase Glo assay relative to control; type: ADME; details: probe luciferin-H
786-0 = experiment: Mitochondrial toxicity in human 786-0 cells at 10 uM incubated with compound for 6 hrs followed by incubation with MitoTracker Red chloromethyl-X-rosamine dye for 45 mins by imaging analysis; type: cell-based; details: 786-0, 6 h
[1] = Cytotoxicity against human A549 cells assessed as cell growth at […] incubated for 48 hrs by Celltiter-Glo luminescence assay relative to control; type: cell-based; parameters: dose or concentration left out as unconfirmed; details: read-out: Activity
CYP3A4 = CYP3A4 (Homo sapiens, UniProt P08684); experiment: Inhibition of human microsomal CYP3A4 expressed in baculovirus infected insect cells at 10 uM using luciferin-IPA as substrate preincubated with enzyme/substrate mixture for 30 mins followed by further incubation with NADPH for 30 mins by CYP450 luciferase Glo assay relative to control; type: ADME; details: probe luciferin-IPA
[2] = Cytotoxicity against human THP1 cells by MTT assay; type: cell-based, THP-1
CYP2C19 = CYP2C19 (Homo sapiens, UniProt P33261); experiment: Inhibition of human microsomal CYP2C19 expressed in baculovirus infected insect cells at 10 uM using luciferin-H EGE as substrate preincubated with enzyme/substrate mixture for 30 mins followed by further incubation with NADPH for 30 mins by CYP450 luciferase Glo assay relative to control; type: ADME; details: probe luciferin-H EGE
CYP2D6 = CYP2D6 (Homo sapiens, UniProt P10635); experiment: Inhibition of human microsomal CYP2D6 expressed in baculovirus infected insect cells at 10 uM using luciferin-ME as substrate preincubated with enzyme/substrate mixture for 30 mins followed by further incubation with NADPH for 30 mins by CYP450 luciferase Glo assay relative to control; type: ADME; details: probe luciferin-ME
hERG (KCNH2) = hERG (KCNH2) (Homo sapiens, UniProt Q12809); experiment: Inhibition of human ERG at 10 uM incubated for 2 hrs by fluorescence polarization assay relative to control
CYP1A2 = molecular target: T1, CYP1A2 (Homo sapiens, UniProt P05177); experiment: Inhibition of human microsomal CYP1A2 expressed in baculovirus infected insect cells at 10 uM using luciferin-1A2 as substrate preincubated with enzyme/substrate mixture for 30 mins followed by further incubation with NADPH for 30 mins by CYP450 luciferase Glo assay relative to control; type: ADME; details: probe luciferin-1A2
T1 sequence (P05177 whole entry): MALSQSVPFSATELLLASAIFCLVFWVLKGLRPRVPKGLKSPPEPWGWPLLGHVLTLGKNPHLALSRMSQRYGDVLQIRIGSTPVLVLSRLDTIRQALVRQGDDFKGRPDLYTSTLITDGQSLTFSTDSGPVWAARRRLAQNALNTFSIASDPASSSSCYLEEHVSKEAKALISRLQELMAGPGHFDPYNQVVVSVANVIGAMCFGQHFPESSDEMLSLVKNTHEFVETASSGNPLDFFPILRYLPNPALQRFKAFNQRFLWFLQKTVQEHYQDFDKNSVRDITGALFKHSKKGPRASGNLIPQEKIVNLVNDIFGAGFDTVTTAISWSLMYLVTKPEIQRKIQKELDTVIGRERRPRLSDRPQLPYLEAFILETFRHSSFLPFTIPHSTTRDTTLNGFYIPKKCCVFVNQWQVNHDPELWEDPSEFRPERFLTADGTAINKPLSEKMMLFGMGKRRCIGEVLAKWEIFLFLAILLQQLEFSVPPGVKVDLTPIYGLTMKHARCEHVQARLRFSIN

Trypanosoma brucei = experiment: Antitrypanosomal activity against Trypanosoma brucei bloodstream form assessed as parasite growth inhibition incubated for 72 hrs by resazurin dye based assay; type: functional, organism-based
Leishmania infantum = experiment: Antileishmanial activity against luciferase expressing intracellular amastigote stage of Leishmania infantum infected in human THP1 cells assessed as parasite growth inhibition measured after 48 to 72 hrs by steady-glo luciferase assay; type: functional, organism-based
[3] = Trypanosoma brucei, 72 h, read-out: EC50

Sequence of CYP2D6 (P10635 whole entry): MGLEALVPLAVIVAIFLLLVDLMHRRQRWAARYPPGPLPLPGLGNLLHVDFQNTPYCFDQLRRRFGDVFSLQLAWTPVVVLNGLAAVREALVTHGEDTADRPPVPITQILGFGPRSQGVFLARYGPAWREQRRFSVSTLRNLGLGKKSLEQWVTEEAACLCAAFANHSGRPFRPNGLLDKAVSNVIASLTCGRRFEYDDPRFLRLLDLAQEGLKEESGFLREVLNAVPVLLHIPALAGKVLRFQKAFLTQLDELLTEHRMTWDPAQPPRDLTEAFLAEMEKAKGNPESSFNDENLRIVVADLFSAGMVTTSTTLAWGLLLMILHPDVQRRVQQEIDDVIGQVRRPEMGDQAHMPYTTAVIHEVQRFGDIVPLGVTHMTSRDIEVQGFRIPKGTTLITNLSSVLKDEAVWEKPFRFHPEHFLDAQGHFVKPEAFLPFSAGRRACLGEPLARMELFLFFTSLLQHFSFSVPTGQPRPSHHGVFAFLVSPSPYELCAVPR
Sequence of hERG (KCNH2) (Q12809 whole entry): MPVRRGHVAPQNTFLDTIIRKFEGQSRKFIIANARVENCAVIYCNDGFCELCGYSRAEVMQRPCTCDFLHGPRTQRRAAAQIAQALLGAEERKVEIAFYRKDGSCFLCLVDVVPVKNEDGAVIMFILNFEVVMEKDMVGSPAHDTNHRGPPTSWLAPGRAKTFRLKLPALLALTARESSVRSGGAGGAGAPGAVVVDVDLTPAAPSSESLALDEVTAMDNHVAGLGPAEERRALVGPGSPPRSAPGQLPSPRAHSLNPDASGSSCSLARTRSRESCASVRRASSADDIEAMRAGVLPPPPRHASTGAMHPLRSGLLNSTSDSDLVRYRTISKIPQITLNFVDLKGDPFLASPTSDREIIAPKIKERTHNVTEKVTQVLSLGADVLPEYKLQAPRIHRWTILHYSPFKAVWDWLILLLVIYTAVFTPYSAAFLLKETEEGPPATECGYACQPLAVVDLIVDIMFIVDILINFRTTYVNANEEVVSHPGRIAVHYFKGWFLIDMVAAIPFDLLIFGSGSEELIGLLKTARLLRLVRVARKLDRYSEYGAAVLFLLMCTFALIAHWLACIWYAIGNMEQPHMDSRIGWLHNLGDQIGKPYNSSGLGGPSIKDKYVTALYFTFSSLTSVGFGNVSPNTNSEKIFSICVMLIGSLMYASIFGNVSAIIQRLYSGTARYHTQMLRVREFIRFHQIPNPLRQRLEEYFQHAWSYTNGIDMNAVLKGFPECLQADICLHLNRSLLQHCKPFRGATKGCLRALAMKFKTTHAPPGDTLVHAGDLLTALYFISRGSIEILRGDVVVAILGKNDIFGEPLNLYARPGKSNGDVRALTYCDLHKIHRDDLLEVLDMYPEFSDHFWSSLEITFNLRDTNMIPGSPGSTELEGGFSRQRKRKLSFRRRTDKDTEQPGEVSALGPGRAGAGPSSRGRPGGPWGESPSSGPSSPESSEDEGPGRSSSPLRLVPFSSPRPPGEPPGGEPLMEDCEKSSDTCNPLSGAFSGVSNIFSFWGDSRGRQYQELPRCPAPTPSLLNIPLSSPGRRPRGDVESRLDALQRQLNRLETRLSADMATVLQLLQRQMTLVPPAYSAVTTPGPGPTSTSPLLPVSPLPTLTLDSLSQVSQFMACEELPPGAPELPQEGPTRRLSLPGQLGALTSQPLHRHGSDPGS
Sequence of CYP3A4 (P08684 whole entry): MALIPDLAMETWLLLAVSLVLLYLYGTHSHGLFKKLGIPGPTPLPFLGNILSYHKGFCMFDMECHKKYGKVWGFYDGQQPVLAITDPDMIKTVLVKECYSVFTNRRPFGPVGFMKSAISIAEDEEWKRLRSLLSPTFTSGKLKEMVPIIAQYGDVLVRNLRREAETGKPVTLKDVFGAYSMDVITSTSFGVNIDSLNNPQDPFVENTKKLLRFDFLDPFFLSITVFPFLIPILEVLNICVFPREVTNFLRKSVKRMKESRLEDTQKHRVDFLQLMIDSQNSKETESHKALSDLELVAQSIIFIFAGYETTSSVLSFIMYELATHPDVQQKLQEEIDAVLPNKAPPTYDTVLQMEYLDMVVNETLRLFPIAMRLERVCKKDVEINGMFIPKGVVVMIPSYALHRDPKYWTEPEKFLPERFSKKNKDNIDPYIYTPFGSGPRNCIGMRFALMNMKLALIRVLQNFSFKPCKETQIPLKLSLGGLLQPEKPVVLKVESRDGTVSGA
Sequence of CYP2C9 (P11712 whole entry): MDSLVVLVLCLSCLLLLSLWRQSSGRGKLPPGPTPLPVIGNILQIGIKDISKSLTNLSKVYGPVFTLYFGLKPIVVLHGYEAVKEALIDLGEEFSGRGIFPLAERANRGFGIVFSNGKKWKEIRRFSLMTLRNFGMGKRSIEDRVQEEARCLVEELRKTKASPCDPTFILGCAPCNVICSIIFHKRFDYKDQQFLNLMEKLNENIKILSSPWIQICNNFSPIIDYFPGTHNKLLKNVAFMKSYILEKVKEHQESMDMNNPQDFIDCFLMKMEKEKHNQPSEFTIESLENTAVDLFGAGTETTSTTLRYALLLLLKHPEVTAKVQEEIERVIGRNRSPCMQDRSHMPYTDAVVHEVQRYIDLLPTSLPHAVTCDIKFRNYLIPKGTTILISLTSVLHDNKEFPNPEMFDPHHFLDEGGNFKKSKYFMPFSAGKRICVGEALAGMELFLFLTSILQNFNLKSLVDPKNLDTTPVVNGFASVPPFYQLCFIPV
Sequence of CYP2C19 (P33261 whole entry): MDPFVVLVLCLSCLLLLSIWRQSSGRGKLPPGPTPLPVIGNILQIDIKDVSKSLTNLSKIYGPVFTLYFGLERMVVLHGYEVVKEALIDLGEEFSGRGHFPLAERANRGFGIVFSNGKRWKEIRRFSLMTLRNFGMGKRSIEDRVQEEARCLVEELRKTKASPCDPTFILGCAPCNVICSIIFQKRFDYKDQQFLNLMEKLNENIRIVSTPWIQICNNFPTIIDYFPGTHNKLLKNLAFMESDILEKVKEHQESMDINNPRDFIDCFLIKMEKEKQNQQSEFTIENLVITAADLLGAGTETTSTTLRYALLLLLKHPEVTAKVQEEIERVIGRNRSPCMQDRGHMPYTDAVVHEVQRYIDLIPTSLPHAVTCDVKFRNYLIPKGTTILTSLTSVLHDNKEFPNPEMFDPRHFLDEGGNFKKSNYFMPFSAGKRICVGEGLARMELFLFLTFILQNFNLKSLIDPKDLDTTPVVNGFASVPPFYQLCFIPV

Compound | inhibition at 0.5 h, 10 µM (CYP2C9) [%] | inhibition at 0.5 h, 10 µM (CYP3A4) [%] | inhibition at 0.5 h, 10 µM (CYP2C19) [%] | inhibition at 0.5 h, 10 µM (CYP2D6) [%] | inhibition at 0.5 h, 10 µM (CYP1A2) [%] | EC50 (Trypanosoma brucei) | EC50 (Trypanosoma brucei; [3]) [µM] | Activity (786-0) [%] | viability at 48 h [1] [%] | CC50 [2] [µM] | inhibition at 2 h, 10 µM (hERG (KCNH2)) [%] | EC50 (Leishmania infantum)
CCOc1ccc2c(=O)c(O)c(-c3csc4ccccc34)oc2c1 | 23 | 11.5 | 46.1 | 24.7 | 81.8 | Not Active |  | 29.51 | 11.9 | 12.5 to 25 | -3.21 | Not Active
COc1ccc2oc(-c3csc4ccccc34)c(OC(=O)N(C)C)c(=O)c2c1 | -6.48 | 47.4 | 26.3 | 20.3 | 61.1 | Not Active |  | -42.09 | 104 | 12.5 to 25 | -17.9 | Not Active
CCOc1c(-c2csc3ccccc23)oc2ccc(OC)cc2c1=O | 14.1 | 46.9 | 54.5 | 50.2 | 92.4 | Not Active |  | -27.16 | 120 | 25 to 50 | 11.8 | Not Active
Cc1ccc2c(=O)c(O)c(-c3csc4ccccc34)oc2c1 | 37 | 13.2 | 39.1 | 28.1 | 94.2 |  | 4.5 | -19.4 | 50.1 | 50 to 100 | -15 | Not Active
COc1ccc2oc(-c3csc4ccccc34)c(OC(=O)C(C)(C)C)c(=O)c2c1 | 33.6 | 50.1 | 31.8 | 11.8 | 51.6 |  | 3.7 | -47.48 | 133 | 12.5 to 25 | -23.8 | Not Active
COc1ccc2c(=O)c(O)c(-c3csc4ccccc34)oc2c1 | 28.1 | 5.81 | 62.3 | 20.3 | 90 |  | 3.1 | -22.67 | 53.9 | 25 to 50 | -4.35 | Not Active
O=c1c(O)c(-c2csc3ccccc23)oc2cc(F)ccc12 | 26.5 | 9.54 | 24.2 | 23 | 80.6 |  |  | -22.29 | 124 | 25 to 50 | 11.6 | Not Active
O=c1c(O)c(-c2csc3ccccc23)oc2cc(Cl)ccc12 | 5.82 | -5.72 | -6.35 | -3.33 | 57.5 |  | 5.34 | 81.33 | -49.6 | 50 to 100 | 16.3 | Not Active
CCCOc1c(-c2csc3ccccc23)oc2ccc(OC)cc2c1=O | 19.6 | 48.2 | 31.7 | 66.5 | 57.2 | Not Active |  | 95.63 | 60.1 | 12.5 to 25 | 33.9 | Not Active

Continued, in another order:

inhibition at 0.5 h, 10 µM (CYP2C9) [%] | inhibition at 0.5 h, 10 µM (CYP3A4) [%] | inhibition at 0.5 h, 10 µM (CYP2C19) [%] | inhibition at 0.5 h, 10 µM (CYP2D6) [%] | inhibition at 0.5 h, 10 µM (CYP1A2) [%] | EC50 (Trypanosoma brucei) | EC50 (Trypanosoma brucei; [3]) [µM] | Compound | Activity (786-0) [%] | viability at 48 h [1] [%] | CC50 [2] [µM] | inhibition at 2 h, 10 µM (hERG (KCNH2)) [%] | EC50 (Leishmania infantum)
-3.36 | -3.86 | -8.24 | -15.1 | 27.4 | Not Active |  | COc1ccc2oc(-c3ccc4ncccc4c3)c(O)c(=O)c2c1 | -7.05 | 101 | > 100 | 16.1 | 
47.6 | 7.49 | 73.2 | 36.2 | 96.7 | Not Active |  | O=c1c(O)c(-c2ccco2)oc2ccc(O)cc12 | 4.3 | 104 | 20 to 50 | 6.43 | 
28.9 | -1.84 | 31.3 | 6.45 | 97.7 |  | 2.6 | O=c1c(O)c(-c2csc3ccccc23)oc2ccccc12 | -22.23 | 50.3 | < 25 | -22.7 | Not Active
71.3 | 14.1 | 54.3 | 50.8 | 104 | Not Active |  | COc1ccc2oc(-c3ccco3)c(O)c(=O)c2c1 | -0.99 | 106 | 50 to 100 | -1.31 | 
46.3 | -0.65 | 68.7 | 23.4 | 103 | Not Active |  | COc1ccc2c(=O)c(O)c(-c3ccco3)oc2c1 | -1.6 | 102 | > 100 | -3.37 | 
71.8 | 6.11 | 27.3 | 10.9 | 106 | Not Active |  | Cc1csc(-c2oc3cccc(O)c3c(=O)c2O)c1 | 5.8 | 56.8 | > 100 | 34.2 | 
19.4 | -19.3 | 22.4 | 16 | 81.3 |  | 2 | Cc1ccc2oc(-c3csc4ccccc34)c(O)c(=O)c2c1 | -21.98 | 129 | < 12.5 | -21.6 | Not Active
83.7 | 14.1 | 65.4 | 28.4 | 93.5 | Not Active |  | O=c1c(O)c(-c2ccco2)oc2cc(O)ccc12 | -1.18 | 108 | > 100 | 18.7 | 
43.8 | 73.8 | 57.9 | 24.1 | 108 | Not Active |  | Cc1ccsc1-c1oc2cc(O)ccc2c(=O)c1O | -3.38 | 83.4 | 12.5 to 20 | -1.79 | 
-0.02 | 22 | -1.53 | 3.57 | 89.2 |  |  | COc1ccc2oc(-c3cn(C)c4ccccc34)c(O)c(=O)c2c1 | -1.87 | 18.6 |  | 12.7 | 
